Data reported in patent US10851108B2, “Substituted bicyclic heterocyclic compounds” (BRISTOL-MYERS SQUIBB COMPANY, priority 2016, dated 2020).
pIC50: −log10 of the molar value.

These molecules were tested against hROMK (human Kir1.1) (Homo sapiens (Human), UniProt P48048) (assay: Thallium Flux Assay). Details: CHO T-Rex hROMK stable cell line, 10-point concentration response; read-out: hROMK Th+ Flux IC50.
Assay type: cell-based
Method: Solutions and reagents: Thallium flux assay was performed using FluxOR kit (F10017, Life Technologies). Loading buffer, assay buffer and stimulus buffer were prepared using kit components. HBSS (Hank's balanced salt solution, Cat #14025-092) was purchased separately from Life Technologies.
To prepare 10 ml of loading buffer: 10 μl of FluxOR dye (reconstituted in DMSO) was first added to 100 μl of powerload concentrate and this mix along with 100 μl of Probenicid (100×) was then added to 9.79 ml of HBSS. Assay buffer (10 ml) was prepared by addition of 2 ml of FluxOR chloride free buffer (5×), 100 μl of Probenicid (100×), and 0.2 ml of Ouabain (13.77 mM) to 7.7 ml of deionized water. Stimulus buffer was composed of 15 mM Tl2SO4, 0.75 mM K2SO4 in FluxOR chloride free buffer (diluted to 1× using deionized water). The final concentration of Tl2SO4 and K2SO4 in the assay plate was 3 mM and 0.15 mM, respectively.
Plating and induction of cells: The CHO T-Rex hROMK (human Kir1.1) stable cell line was maintained in Ham's F12 media supplemented with 10% FBS, 1% Penicillin-Streptomycin, 500 μg/ml Zeocin and 10 μg/ml Blasticidin at 37° C. in a 5% CO2 incubator. One day before the experiment, the cells were dissociated by incubation with Versene solution (15040-066, Life Technologies) for 10 minutes at 37° C. followed by addition of growth media. The cell suspension was centrifuged at 1200 rpm for 5 min. After discarding the supernatant, the cells were resuspended in fresh growth media and cell concentration was determined using a hemocytometer. Next, 0.5 μg/ml of Doxycycline was added to the cell suspension to induce hROMK channel expression and 50 μl (10,000 cells/well) of cell suspension was added to each well of a poly-D lysine coated 384 well black, optically clear bottom plate (6007718, Perkin Elmer). The assay plate was kept at 37° C. in a 5% CO2 incubator.
Assay protocol: On the day of experiment, media was removed and loading buffer was added (30 μl/well) to the assay plate. The cells were incubated in the loading buffer for 30 minutes at 37° C. The loading buffer was then replaced by assay buffer (30 μl/well) followed by addition of test compounds or controls. The cells were incubated with compounds for 30 minutes and the plate was then mounted on FlexStation (Molecular Devices) for fluorescence read out with excitation and emission wavelengths at 488 and 525 nm, respectively. Each well was read for 90 sec at 2 sec interval and the stimulus buffer was added after 20 seconds of baseline recording. The final DMSO concentration was either 0.5 or 1% in the assay plate. […] controls were defined by addition of DMSO or 3 μM of a standard ROMK inhibitor, respectively, to the wells instead of a test compound.
A 10-point concentration response curve was used to estimate the IC50 value of test compounds.
The data in Table 3 is reported with two significant figures.

Sequence of hROMK (human Kir1.1) (P48048 whole entry): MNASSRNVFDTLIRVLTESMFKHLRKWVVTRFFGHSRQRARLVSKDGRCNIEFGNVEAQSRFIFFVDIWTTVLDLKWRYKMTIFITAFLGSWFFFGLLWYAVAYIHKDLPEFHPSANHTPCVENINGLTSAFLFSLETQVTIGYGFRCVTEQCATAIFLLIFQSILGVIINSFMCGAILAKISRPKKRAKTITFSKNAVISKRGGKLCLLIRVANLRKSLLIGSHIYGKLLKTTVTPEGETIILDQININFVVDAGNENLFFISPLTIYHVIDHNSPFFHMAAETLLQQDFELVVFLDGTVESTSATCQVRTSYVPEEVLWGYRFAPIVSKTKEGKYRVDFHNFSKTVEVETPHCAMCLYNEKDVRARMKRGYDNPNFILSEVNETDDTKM

| pIC50 | Compound |
| --- | --- |
| 5.96 | Cc1c(CN2CCc3nc(-n4cc(C#N)c5ccccc54)ncc3C2)ccc2c1COC2=O [Example 23, 1-(6-((4-methyl-1-oxo-1,3-dihydro-isobenzofuran-5-yl)methyl)-5,6,7,8-tetrahydropyrido[4,3-d]pyrimidin-2-yl)-1H-indole-3-carbonitrile] |
| 5.82 | Cc1c(CN2CCc3nc(-n4ccc5c(C#N)cccc54)ncc3C2)ccc2c1COC2=O [Example 20, 1-(6-((4-methyl-1-oxo-1,3-dihydro-isobenzofuran-5-yl)methyl)-5,6,7,8-tetrahydropyrido[4,3-d]pyrimidin-2-yl)-1H-indole-4-carbonitrile] |
| 5.47 | Cc1c(CN2CCc3nc(-n4cnc5c(C#N)cccc54)ncc3C2)ccc2c1COC2=O [Example 40, 1-(6-((4-methyl-1-oxo-1,3-dihydro-isobenzofuran-5-yl)methyl)-5,6,7,8-tetrahydropyrido[4,3-d]pyrimidin-2-yl)-1H-benzo[d]imidazole-4-carbonitrile] |
| 5.52 | Cc1c(C(CO)N2CCc3nc(Nc4ccc(C#N)c(F)c4)ncc3C2)ccc2c1COC2=O (single isomer, unassigned) [Example 29-I, 2-fluoro-4-((6-(2-hydroxy-1-(4-methyl-1-oxo-1,3-dihydroisobenzofuran-5-yl)ethyl)-5,6,7,8-tetrahydropyrido [4,3-d]pyrimidin-2-yl)amino)benzonitrile] |
| 6.02 | N#Cc1ccc(Nc2ncc3c(n2)CCN(Cc2ccc4c(c2)COC4=O)C3)cc1F [Example 2] |
| 5.74 | Cc1c(C(CO)N2CCc3nc(-n4cc(C#N)c5ccccc54)ncc3C2)ccc2c1COC2=O (single isomer, unassigned) [Example 9-II, 1-(6-(2-hydroxy-1-(4-methyl-1-oxo-1,3-dihydroisobenzofuran-5-yl)ethyl)-5,6,7,8-tetrahydropyrido[4,3-d]pyrimidin-2-yl)-1H-indole-3-carbonitrile] |
| 7.42 | Cc1c(C(O)CN2CCc3nc(-n4ncc5c(C#N)cccc54)ncc3C2)ccc2c1COC2=O (single isomer, unassigned) [Example 12-I, 1-(6-(2-hydroxy-2-(4-methyl-1-oxo-1,3-dihydroisobenzofuran-5-yl)ethyl)-5,6,7,8-tetrahydropyrido[4,3-d]pyrimidin-2-yl)-1H-indazole-4-carbonitrile] |
| 6.47 | N#Cc1ccc2c(ccn2-c2ncc3c(n2)CCN(CC(O)c2ccc4c(c2)COC4=O)C3)c1 (single isomer, unassigned) [Example 17-I, 1-(6-(2-hydroxy-2-(1-oxo-1,3-dihydro-isobenzofuran-5-yl)ethyl)-5,6,7,8-tetrahydropyrido[4,3-d]pyrimidin-2-yl)-1H-indole-5-carbonitrile] |
| 5.33 | Cc1c(C(CO)N2CCc3nc(-n4ccc5cc(C#N)cnc54)ncc3C2)ccc2c1COC2=O (single isomer, unassigned) [Example 45-I, 1-(6-(2-hydroxy-1-(4-methyl-1-oxo-1,3-dihydroisobenzofuran-5-yl)ethyl)-5,6,7,8-tetrahydropyrido[4,3-d]pyrimidin-2-yl)-1H-pyrrolo[2,3-b]pyridine-5-carbonitrile] |
| 6.42 | Cc1c(C(O)CN2CCc3nc(-n4ccc5cc(C#N)ccc54)ncc3C2)ccc2c1COC2=O (single isomer, unassigned) [Example 16-II, 1-(6-(2-hydroxy-2-(4-methyl-1-oxo-1,3-dihydroisobenzofuran-5-yl)ethyl)-5,6,7,8-tetrahydropyrido[4,3-d]pyrimidin-2-yl)-1H-indole-5-carbonitrile] |
| 6.70 | Cc1c(CCN2CCc3nc(Nc4ccc(C#N)c(F)c4)ncc3C2)ccc2c1COC2=O [Example 27, 2-fluoro-4-((6-(2-(4-methyl-1-oxo-1,3-dihydroisobenzofuran-5-yl)ethyl)-5,6,7,8-tetrahydropyrido[4,3-d]pyrimidin-2-yl)amino) benzonitrile] |
| 6.15 | Cn1c(=O)oc2ccc(C(O)CN3CCc4nc(-n5ccc6c(C#N)cccc65)ncc4C3)cc21 (single isomer, unassigned) [Example 22-II, 1-(6-(2-hydroxy-2-(3-methyl-2-oxo-2,3-dihydrobenzo[d]oxazol-5-yl)ethyl)-5,6,7,8-tetrahydropyrido[4,3-d]pyrimidin-2-yl)-1H-indole-4-carbonitrile] |
| 5.72 | Cc1c(C(O)CN2CCc3nc(-n4ccc5c(C#N)ccnc54)ncc3C2)ccc2c1COC2=O (single isomer, unassigned) [Example 19-II, 1-(6-(2-hydroxy-2-(4-methyl-1-oxo-1,3-dihydroisobenzofuran-5-yl)ethyl)-5,6,7,8-tetrahydropyrido[4,3-d]pyrimidin-2-yl)-1H-pyrrolo[2,3-b]pyridine-4-carbonitrile] |
| 5.52 | Cc1c(C(CO)N2CCc3nc(-n4cc(C#N)c5ccccc54)ncc3C2)ccc2c1COC2=O (single isomer, unassigned) [Example 9-I, 1-(6-(2-hydroxy-1-(4-methyl-1-oxo-1,3-dihydroisobenzofuran-5-yl)ethyl)-5,6,7,8-tetrahydropyrido[4,3-d]pyrimidin-2-yl)-1H-indole-3-carbonitrile] |
| 6.42 | Cc1c(C(O)CN2CCc3nc(N4CCc5c(C#N)cccc54)ncc3C2)ccc2c1COC2=O (single isomer, unassigned) [Example 65-II, 1-(6-(2-hydroxy-2-(4-methyl-1-oxo-1,3-dihydroisobenzofuran-5-yl)ethyl)-5,6,7,8-tetrahydropyrido[4,3-d]pyrimidin-2-yl)indoline-4-carbonitrile] |
| 6.26 | Cc1c(CN2CCc3cc(Nc4cccc(F)c4C#N)ccc3C2)ccc2c1COC2=O [Example 39, 2-fluoro-6-((2-((4-methyl-1-oxo-1,3-dihydroisobenzofuran-5-yl)methyl)-1,2,3,4-tetrahydroisoquinolin-6-yl)amino)benzonitrile] |
| 6.34 | Cc1c(C(O)CN2CCc3nc(-n4ccc5c(C#N)ccnc54)ncc3C2)ccc2c1COC2=O (single isomer, unassigned) [Example 19-I, 1-(6-(2-hydroxy-2-(4-methyl-1-oxo-1,3-dihydroisobenzofuran-5-yl)ethyl)-5,6,7,8-tetrahydropyrido[4,3-d]pyrimidin-2-yl)-1H-pyrrolo[2,3-b]pyridine-4-carbonitrile] |
| 6.09 | Cc1c(CN2CCc3cc(Nc4ccc(C#N)c(F)c4)ccc3C2)ccc2c1COC2=O [Example 30, 2-fluoro-4-((2-((4-methyl-1-oxo-1,3-dihydroisobenzofuran-5-yl)methyl)-1,2,3,4-tetrahydroisoquinolin-6-yl)amino)benzonitrile] |
| 5.49 | Cc1c(CN2CCc3nc(-n4ccc5cc(C#N)ccc54)ncc3C2)ccc2c1COC2=O [Example 21, 1-(6-((4-methyl-1-oxo-1,3-dihydro-isobenzofuran-5-yl)methyl)-5,6,7,8-tetrahydropyrido[4,3-d]pyrimidin-2-yl)-1H-indole-5-carbonitrile] |

| Compound | pIC50 |
| --- | --- |
| Cc1c(CN2Cc3cnc(Nc4ccc(C#N)c(F)c4)nc3CC2CO)ccc2c1COC2=O (centres unmarked) [Example 57-II, 2-fluoro-4-((7-(hydroxymethyl)-6-((4-methyl-1-oxo-1,3-dihydroisobenzo-furan-5-yl)methyl)-5,6,7,8-tetrahydro-pyrido[4,3-d]pyrimidin-2-yl)amino) benzonitrile] | 6.17 |
